Source: ChEMBL document CHEMBL1127612, “Maleimidoethyl 3-(tri-n-butylstannyl)hippurate: a useful radioiodination reagent for protein radiopharmaceuticals to enhance target selective radioactivity localization” (J Med Chem, 1994)
Blank lines part the entries; values can stand above or below the compound they belong to.

Tests used:
Mus musculus [1] = experiment: Tested for biodistribution of radioactivity after 24 hr of intravenous injection in mice feces; format: ADME, organism-based; details: in vivo
Mus musculus [2] = experiment: Tested for biodistribution of radioactivity after 5 min of intravenous injection in mice kidneys; format: ADME, organism-based; details: in vivo
Mus musculus [3] = experiment: Tested for biodistribution of radioactivity after 1 hr of intravenous injection in mice kidneys; format: ADME, organism-based, Kidney; details: in vivo
Mus musculus [4] = experiment: Tested for biodistribution of radioactivity after 24 hr of intravenous injection in mice liver; format: ADME, organism-based; details: in vivo
Mus musculus [5] = experiment: Tested for biodistribution of radioactivity after 6 hr of intravenous injection in mice intestines; format: ADME, organism-based, Intestine; details: in vivo
Mus musculus [6] = experiment: Tested for biodistribution of radioactivity after 6 hr of intravenous injection in mice stomach; format: ADME, organism-based; details: in vivo
Mus musculus [7] = experiment: Tested for biodistribution of radioactivity after 5 min of intravenous injection in mice liver; format: ADME, organism-based; details: in vivo
Mus musculus [8] = experiment: Tested for biodistribution of radioactivity after 3h of intravenous injection in mice neck; format: ADME, organism-based; details: in vivo
Mus musculus [9] = experiment: Tested for biodistribution of radioactivity after 5 min of intravenous injection in mice stomach; format: ADME, organism-based; details: in vivo
Mus musculus [10] = experiment: Tested for biodistribution of radioactivity after 3h of intravenous injection in mice spleen; format: ADME, organism-based; details: in vivo
Mus musculus [11] = experiment: Tested for biodistribution of radioactivity after 1 hr of intravenous injection in mice neck; format: ADME, organism-based; details: in vivo
Mus musculus [12] = experiment: Tested for biodistribution of radioactivity after 3h of intravenous injection in mice kidneys; format: ADME, organism-based, Kidney; details: in vivo
Mus musculus [13] = experiment: Tested for biodistribution of radioactivity after 1 hr of intravenous injection in mice liver; format: ADME, organism-based; details: in vivo
Mus musculus [14] = experiment: Tested for biodistribution of radioactivity after 3h of intravenous injection in mice liver; format: ADME, organism-based; details: in vivo
Mus musculus [15] = experiment: Tested for biodistribution of radioactivity after 5 min of intravenous injection in mice blood; format: ADME, organism-based; details: in vivo
Mus musculus [16] = experiment: Tested for biodistribution of radioactivity after 24 hr of intravenous injection in mice blood; format: ADME, organism-based; details: in vivo
Mus musculus [17] = experiment: Tested for biodistribution of radioactivity after 6 hr of intravenous injection in mice blood; format: ADME, organism-based; details: in vivo
Mus musculus [18] = experiment: Tested for biodistribution of radioactivity after 24 hr of intravenous injection in mice neck; format: ADME, organism-based; details: in vivo
Mus musculus [19] = experiment: Tested for biodistribution of radioactivity after 24 hr of intravenous injection in mice intestines; format: ADME, organism-based, Intestine; details: in vivo
Mus musculus [20] = experiment: Tested for biodistribution of radioactivity after 24 hr of intravenous injection in mice kidneys; format: ADME, organism-based, Kidney; details: in vivo
Mus musculus [21] = experiment: Tested for biodistribution of radioactivity after 3h of intravenous injection in mice intestines; format: ADME, organism-based, Intestine; details: in vivo
Mus musculus [22] = experiment: Tested for biodistribution of radioactivity after 6 hr of intravenous injection in mice neck; format: ADME, organism-based; details: in vivo
Mus musculus [23] = experiment: Tested for biodistribution of radioactivity after 30 min of intravenous injection in mice lintestines; format: ADME, organism-based, Intestine; details: in vivo, 0.5 h
Mus musculus [24] = experiment: Tested for biodistribution of radioactivity after 5 min of intravenous injection in mice neck; format: ADME, organism-based; details: in vivo
Mus musculus [25] = experiment: Tested for biodistribution of radioactivity after 6 hr of intravenous injection in mice urine; format: ADME, organism-based; details: in vivo
Mus musculus [26] = experiment: Tested for biodistribution of radioactivity after 30 min of intravenous injection in mice kidneys; format: ADME, organism-based; details: in vivo, 0.5 h
Mus musculus [27] = experiment: Tested for biodistribution of radioactivity after 30 min of intravenous injection in mice blood; format: ADME, organism-based; details: in vivo, 0.5 h
Mus musculus [28] = experiment: Tested for biodistribution of radioactivity after 30 min of intravenous injection in mice spleen; format: ADME, organism-based; details: in vivo, 0.5 h
Mus musculus [29] = experiment: Tested for biodistribution of radioactivity after 30 min of intravenous injection in mice stomach; format: ADME, organism-based; details: in vivo, 0.5 h
Mus musculus [30] = experiment: Tested for biodistribution of radioactivity after 30 min of intravenous injection in mice liver; format: ADME, organism-based; details: in vivo, 0.5 h
Mus musculus [31] = experiment: Tested for biodistribution of radioactivity after 24 hr of intravenous injection in mice stomach; format: ADME, organism-based; details: in vivo
Mus musculus [32] = experiment: Tested for biodistribution of radioactivity after 6 hr of intravenous injection in mice spleen; format: ADME, organism-based; details: in vivo
Mus musculus [33] = experiment: Tested for biodistribution of radioactivity after 5 min of intravenous injection in mice intestines; format: ADME, organism-based, Intestine; details: in vivo
Mus musculus [34] = experiment: Tested for biodistribution of radioactivity after 24 hr of intravenous injection in mice urine; format: ADME, organism-based; details: in vivo
Mus musculus [35] = experiment: Tested for biodistribution of radioactivity after 6 hr of intravenous injection in mice liver; format: ADME, organism-based; details: in vivo
Mus musculus [36] = experiment: Tested for biodistribution of radioactivity after 5 min of intravenous injection in mice spleen; format: ADME, organism-based; details: in vivo
Mus musculus [37] = experiment: Tested for biodistribution of radioactivity after 1 hr of intravenous injection in mice intestines; format: ADME, organism-based, Intestine; details: in vivo
Mus musculus [38] = experiment: Tested for biodistribution of radioactivity after 6 hr of intravenous injection in mice feces; format: ADME, organism-based; details: in vivo
Mus musculus [39] = experiment: Tested for biodistribution of radioactivity after 1 hr of intravenous injection in mice stomach; format: ADME, organism-based; details: in vivo
Mus musculus [40] = experiment: Tested for biodistribution of radioactivity after 30 min of intravenous injection in mice neck; format: ADME, organism-based; details: in vivo, 0.5 h
Mus musculus [41] = experiment: Tested for biodistribution of radioactivity after 6 hr of intravenous injection in mice kidneys; format: ADME, organism-based, Kidney; details: in vivo
Mus musculus [42] = experiment: Tested for biodistribution of radioactivity after 3h of intravenous injection in mice stomach; format: ADME, organism-based; details: in vivo
Mus musculus [43] = experiment: Tested for biodistribution of radioactivity after 24 hr of intravenous injection in mice spleen; format: ADME, organism-based; details: in vivo
Mus musculus [44] = experiment: Tested for biodistribution of radioactivity after 1 hr of intravenous injection in mice blood; format: ADME, organism-based; details: in vivo
Mus musculus [45] = experiment: Tested for biodistribution of radioactivity after 1 hr of intravenous injection in mice spleen; format: ADME, organism-based; details: in vivo
Mus musculus [46] = experiment: Tested for biodistribution of radioactivity after 3h of intravenous injection in mice blood; format: ADME, organism-based; details: in vivo

Dose/organ (Mus musculus [1]): 3.52%
Dose/organ (Mus musculus [2]): 0.65%
Dose/organ (Mus musculus [3]): 2.79%
Dose/organ (Mus musculus [4]): 0.27%
Dose/organ (Mus musculus [5]): 0.84%
Dose/organ (Mus musculus [6]): 0.45%
Dose/organ (Mus musculus [7]): 92.56%
Dose/organ (Mus musculus [8]): 0.02%
Dose/organ (Mus musculus [9]): 0.18%
Dose/organ (Mus musculus [10]): 0.07%
Dose/organ (Mus musculus [11]): 0.06%
Dose/organ (Mus musculus [12]): 0.14%
Dose/organ (Mus musculus [13]): 3.98%
Dose/organ (Mus musculus [14]): 1.56%
Dose/g (Mus musculus [15]): 0.45%
Dose/g (Mus musculus [16]): 0.02%
Dose/g (Mus musculus [17]): 0.03%
Dose/organ (Mus musculus [18]): 0.01%
Dose/organ (Mus musculus [19]): 0.05%
Dose/organ (Mus musculus [20]): 0.02%
Dose/organ (Mus musculus [21]): 2.54%
Dose/organ (Mus musculus [22]): 0.02%
Dose/organ (Mus musculus [23]): 9.99%
Dose/organ (Mus musculus [24]): 0.07%
Dose/organ (Mus musculus [25]): 78.35%
Dose/organ (Mus musculus [26]): 5.34%
Dose/g (Mus musculus [27]): 1.01%
Dose/organ (Mus musculus [28]): 0.12%
Dose/organ (Mus musculus [29]): 0.59%
Dose/organ (Mus musculus [30]): 12.28%
Dose/organ (Mus musculus [31]): 0.05%
Dose/organ (Mus musculus [32]): 0.07%
Dose/organ (Mus musculus [33]): 0.28%
Dose/organ (Mus musculus [34]): 90.6%
Dose/organ (Mus musculus [35]): 0.58%
Dose/organ (Mus musculus [36]): 0.21%
Dose/organ (Mus musculus [37]): 6.11%
Dose/organ (Mus musculus [38]): 2.3%
Dose/organ (Mus musculus [39]): 0.56%
Dose/organ (Mus musculus [40]): 0.11%
Dose/organ (Mus musculus [41]): 0.06%
Dose/organ (Mus musculus [42]): 0.52%
Dose/organ (Mus musculus [43]): 0.04%
Dose/g (Mus musculus [44]): 0.24%
Dose/organ (Mus musculus [45]): 0.1%
Dose/g (Mus musculus [46]): 0.09%
Structure (SMILES): CN[C@@H](CSC1CC(=O)N(CCOC(=O)CNC(=O)c2cccc(I)c2)C1=O)C(=O)O (some centres not stated)

Dose/organ (Mus musculus [1]): 3.26%
Dose/organ (Mus musculus [2]): 0.8%
Dose/organ (Mus musculus [3]): 1.71%
Dose/organ (Mus musculus [4]): 0.18%
Dose/organ (Mus musculus [5]): 1.83%
Dose/organ (Mus musculus [6]): 0.32%
Dose/organ (Mus musculus [7]): 92.86%
Dose/organ (Mus musculus [8]): 0.02%
Dose/organ (Mus musculus [9]): 0.16%
Dose/organ (Mus musculus [10]): 0.01%
Dose/organ (Mus musculus [11]): 0.03%
Dose/organ (Mus musculus [12]): 0.7%
Dose/organ (Mus musculus [13]): 6.96%
Dose/organ (Mus musculus [14]): 4.18%
Dose/g (Mus musculus [15]): 0.95%
Dose/organ (Mus musculus [16]): 0.01%
Dose/g (Mus musculus [17]): 0.04%
Dose/organ (Mus musculus [18]): 0.01%
Dose/organ (Mus musculus [19]): 0.07%
Dose/organ (Mus musculus [20]): 0.02%
Dose/organ (Mus musculus [21]): 6.42%
Dose/organ (Mus musculus [22]): 0.01%
Dose/organ (Mus musculus [23]): 9.45%
Dose/organ (Mus musculus [24]): 0.16%
Dose/organ (Mus musculus [25]): 63.2%
Dose/organ (Mus musculus [26]): 6.42%
Dose/g (Mus musculus [27]): 1.16%
Dose/organ (Mus musculus [28]): 0.07%
Dose/organ (Mus musculus [29]): 0.65%
Dose/organ (Mus musculus [30]): 21.18%
Dose/organ (Mus musculus [31]): 0.04%
Dose/organ (Mus musculus [32]): 0.02%
Dose/organ (Mus musculus [33]): 0.41%
Dose/organ (Mus musculus [34]): 83.9%
Dose/organ (Mus musculus [35]): 2.82%
Dose/organ (Mus musculus [36]): 0.02%
Dose/organ (Mus musculus [37]): 10.73%
Dose/organ (Mus musculus [38]): 1.53%
Dose/organ (Mus musculus [39]): 0.43%
Dose/organ (Mus musculus [40]): 0.14%
Dose/organ (Mus musculus [41]): 0.31%
Dose/organ (Mus musculus [42]): 0.36%
Dose/organ (Mus musculus [43]): 0.02%
Dose/g (Mus musculus [44]): 0.28%
Dose/organ (Mus musculus [45]): 0.09%
Dose/g (Mus musculus [46]): 0.11%
Structure (SMILES): CN[C@@H](CCCCN)C(=O)NC(=O)c1cccc(I)c1
